One may read the melting point as the temperature, or range, at which the solid turns liquid.

As for `COC(=O)c1cccc(-c2nc(-c3cccc(C(F)(F)F)c3)cs2)c1` [Example 45, methyl 3-[4-(3-trifluoromethylphenyl)-2-thiazolyl]benzoate], the melting point was 105 to 106 °C. As for `CCOC(=O)c1ccc(-c2csc(-c3ccccc3)n2)cc1` [Example 102, ethyl 4-(2-phenyl-4-thiazolyl]benzoate], the melting point was 72 to 73 °C. The result for `Cc1cc(-c2csc(-c3cccc(C(=O)O)c3)n2)c(C)s1` [Example 92, 3-[4-(2,5-dimethyl-3-thienyl)-2-thiazolyl]benzoic acid] reads 155 to 156 °C; that for `COC(=O)c1cccc(-c2nc(-c3ccc(F)cc3F)cs2)c1` [Example 46, methyl 3-[4-(2,4-difluorophenyl)-2-thiazolyl]benzoate], 121 to 122 °C; that for `O=C(O)c1ccc(-c2csc(-c3ccc(Cl)cc3)n2)cc1` [compound 10, 4-[2-(4-chlorophenyl)-4-thiazolyl]benzoic acid], 284 to 285 °C.

The compound `CCOC(=O)c1cccc(-c2nc(-c3ccc(C(C)(C)C)cc3)cs2)c1` [Example 84, ethyl 3-[4-(4-t-butylphenyl)-2-thiazolyl]benzoate] came in with a melting point of 96 to 97 °C.

The compound `Br.CCOC(=O)c1ccc(-c2csc(-c3ccncc3)n2)cc1` [Example 105, ethyl 4-[2-(4-pyridyl)-4-thiazolyl)benzoate hydrobromide] displayed a melting point of 247 to 248 °C. The result for `CCOC(=O)c1ccc(-c2coc(-c3cccc(C(F)(F)F)c3)n2)cc1` [Example 20, ethyl 4-[2-(3-trifluoromethylphenyl)-4-oxazolyl]benzoate] reads 132 to 133 °C.

Compound `CCOC(=O)c1cccc(-c2nc(-c3cc(C)oc3C)cs2)c1` [Example 49, ethyl 3-[4-(2,5-dimethyl-3-furyl)-2-thiazolyl]benzoate] returned a melting point of 100 to 101 °C. For `COC(=O)c1cccc(-c2nc(-c3cccc(OC(F)(F)F)c3)cs2)c1` [Example 50, methyl 3-[4-(3-trifluoromethoxyphenyl)-2-thiazolyl]benzoate] the value was 84 to 85 °C. The result for `CCOC(=O)c1ccc(-c2ncc(-c3ccc(Cl)cc3)o2)cc1` [Example 108, ethyl 4-[5-(4-chlorophenyl)-2-oxazolyl]benzoate] reads 195 to 197 °C; that for `O=C(O)c1cccc(-c2nc(-c3cccc(C(F)(F)F)c3)cs2)c1` [Example 68, 3-[4-(3-trifluoromethylphenyl)-2-thiazolyl]benzoic acid], 229 to 230 °C. The result for `O=C(O)c1cccc(-c2nc(-c3ccc(F)cc3F)cs2)c1` [Example 69, 3-[4-(2,4-difluorophenyl)-2-thiazolyl]benzoic acid] reads 255 to 256 °C; that for `CCOC(=O)c1ccc(-c2csc(-c3ccc(Cl)cc3)n2)s1` [Example 39, ethyl 5-[2-(4-chlorophenyl)-4-thiazolyl]-2-thienylcarboxylate], 234 to 236 °C. Turning to `Br.COC(=O)c1ccc(-c2nc(-c3cccnc3)cs2)cc1` [Example 34, methyl 4-[4-(3-pyridyl)-2-thiazolyl]benzoate hydrobromide], the melting point lay in the range of 241 to 242 °C. The result for `Br.COC(=O)c1ccc(-c2nc(-c3ccncc3)cs2)cc1` [Example 35, methyl 4-[4-(4-pyridyl)-2-thiazolyl]benzoate hydrobromide] reads 238 to 240 °C; that for `CCOC(=O)c1ccc(-c2coc(-c3ccc(Cl)cc3)n2)cc1` [Example 6, ethyl 4-[2-(4-chlorophenyl)-4-oxazolyl)benzoate], 153 to 154 °C. The result for `CCOc1ccc(-c2csc(-c3cccc(C(=O)OC)c3)n2)cc1` [Example 83, methyl 3-[4-(4-ethoxyphenyl)-2-thiazolyl]benzoate] reads 192 to 193 °C; that for `COC(=O)c1ccc(-c2nc(-c3ccc(C(C)C)cc3)cs2)cc1` [Example 87, methyl 4-[4-(4-isopropylphenyl)-2-thiazolyl]benzoate], 134 to 135 °C. The result for `O=C(O)c1ccc(-c2ncc(-c3ccc(Cl)cc3)s2)cc1` [Example 114, 4-[5-(4-chlorophenyl)-2-thiazolyl]benzoic acid] reads > 300 °C; that for `O=C(O)c1ccc(-c2nc(-c3ccccc3)co2)cc1` [Example 11, 4-(4-phenyl-2-oxazolyl]benzoic acid], 275 to 276 °C.

The compound `COC(=O)c1ccc(-c2nc(-c3ccc(OC)cc3)co2)cc1` [Example 3, methyl 4-[4-(4-methoxyphenyl)-2-oxazolyl]benzoate] returned a melting point of 200 to 202 °C. The result for `COC(=O)c1ccc(-c2nc(-c3cc(C(F)(F)F)cc(C(F)(F)F)c3)co2)cc1` [Example 17, methyl 4-[4-[3,5-bis(trifluoromethyl)phenyl]-2-oxazolyl]benzoate] reads 180 to 181 °C; that for `O=C(O)c1ccc(-c2nc(-c3ccccc3C(F)(F)F)co2)cc1` [Example 15, 4-[4-(2-trifluoromethylphenyl)-2-oxazolyl]benzoic acid], 264 to 265 °C. For `Cc1cc(-c2csc(-c3ccc(C(=O)O)cc3)n2)c(C)o1` [Example 91, 4-[4-(2,5-dimethyl-3-furyl)-2-thiazolyl]benzoic acid] the value was 264 to 265 °C; for `COC(=O)c1ccc(-c2nc(-c3ccc(Cl)cc3)co2)cc1` [Example 1, methyl 4-[4-(4-chlorophenyl)-2-oxazolyl]benzoate], 183 to 184 °C; for `CCOC(=O)c1cccc(-c2nc(-c3cc(Cl)sc3Cl)cs2)c1` [Example 81, ethyl 3-[4-(2,5-dichloro-3-thienyl)-2-thiazolyl]benzoate], 125 to 126 °C. The result for `COc1ccc(-c2csc(-c3cccc(C(=O)O)c3)n2)cc1` [Example 70, 3-[4-(4-methoxyphenyl)-2-thiazolyl]benzoic acid] reads 236 to 238 °C. Turning to `CCOC(=O)c1ccc(-c2coc(-c3ccccc3)n2)cc1` [Example 5, ethyl 4-(2-phenyl-4-oxazolyl)benzoate], the melting point is 110 to 112 °C.

Compound `COC(=O)c1ccc(-c2nc(-c3ccc(Cl)s3)cs2)cc1` [Example 30, methyl 4-[4-(5-chloro-2-thienyl)-2-thiazolyl]benzoate] showed a melting point of 171 to 172 °C. For `O=C(O)c1cccc(-c2nc(-c3ccc(C(F)(F)F)cc3)co2)c1` [Example 27, 3-[4-(4-trifluoromethylphenyl)-2-oxazolyl]benzoic acid] the value was 206 to 208 °C; for `O=C(O)c1ccc(-c2nc(-c3cccc(C(F)(F)F)c3)co2)cc1` [Example 22, 4-[4-(3-trifluoromethylphenyl)-2-oxazolyl]benzoic acid], 253 to 254 °C. In the case of `O=C(O)c1ccc(-c2nc(-c3cccc(OC(F)(F)F)c3)cs2)cc1` [Example 63, 4-[4-(3-trifluoromethoxylphenyl)-2-thiazolyl]benzoic acid], the melting point is 233 to 234 °C. The result for `COC(=O)c1ccc(-c2nc(-c3cc(C)sc3C)cs2)cc1` [Example 79, methyl 4-[4-(2,5-dimethyl-3-thienyl)-2-thiazolyl]benzoate] reads 109 to 110 °C.
